Data published in US20150278436A1, “Methods For Evaluating Effects Of A Treatment On Biological Processes And Pathways” (The Procter & Gamble Company, priority 2014, published 2015).

Experiments:
Type in all cases: cell-based
[1] = tested on: cholesterol metabolism processes/pathways; assay: Percentile of treatment anti-aging effect on Gene Ontology processes/pathways (FIG. 6); details: for effect on the cholesterol metabolism processes/pathways: processes/pathways 100a-h, associated with fibroblasts
From the text: (§1) In general, the method computes a distance between two vectors (i.e., a vector distance), and determines the statistical significance of the vector distance to assess the effect of a treatment on a particular biological pathway. The first of the two vectors is a set of expression changes representing the treatment effect of an ingredient on genes in the biological pathway, and includes one value for each of the genes in the biological pathway. The second of the vectors is a set of expression changes representing the effect of the condition on the genes of the biological pathway. By comparing the vector distance between the two vectors against an empirical distribution of vector distances, the significance of the effect of the treatment on the biological pathway can be determined. The genes corresponding to each biological pathway/process and represented in each of the vectors are specified by Gene Ontology, KEGG pathway, WikiPathway, and/or any other known source.
Specific methods and calculations will now be described using the examples above in which the target treatment is Pal-KTTKS (and others) and the target condition is aging of skin cells. Throughout, UV-mediated aging may also be referred to as “photo-aging,” and cells subject to photo-aging may be referred to as “UV-exposed skin cells” or “skin cells exposed to UV radiation.” Similarly, non-UV-mediated aging may also be referred to as “intrinsic aging,” and cells subject to intrinsic aging may be referred to as “non-UV-exposed skin cells.” The treatment effect—in this case the anti-aging effect—of a specified ingredient (e.g., Pal-KTTKS) is measured by the vector distance (e.g., cosine distance) between two vectors of expression changes (e.g., log 2 fold expression changes) of genes in a target biological process. […]
(§2) While the vector distance for a treatment and a target biological pathway is indicative of the effect of the treatment on the target biological pathway, the vector distance by itself is not indicative of the significance of the effect relative to other effects on other biological pathways. The statistical significance of a particular vector distance may be extrapolated from an empirical distribution of vector distances calculated using reference genomics data such as connectivity map (CMap) genomics data. […]
Using the distributions, a percentile may be calculated for the vector distance between the clinical and treatment vectors. Specifically, the percentile among the extreme region of the distribution for the i-th target biological process is calculated according to […]

[2] = tested on: ATPase regulation processes/pathways; assay: Percentile of treatment anti-aging effect on Gene Ontology processes/pathways (FIG. 7)
From the text: as §1, with “The genes corresponding to each biological pathway/process and represented in each of the vectors are specified by Gene Ontology, KEGG pathway, WikiPathway, and/or any other known source.” left out
as §2

[3] = tested on: cholesterol biosynthesis pathway; assay: Vector (cosine) distance between treatment and clinical aging gene expression vectors, with percentile in the reference genomics distribution (FIG. 4)
From the text: as §1
In the case of a study of the effects of a particular agent, Pal-KTTKS (e.g., at 3 ppm concentrations), on aging of skin cells, for example, a particular biological process may be targeted. For each of the genes in the target biological process, the expression changes (e.g., log 2 fold changes) between old and young cells may be calculated for cells exposed to ultraviolet (UV) radiation (e.g., cells taken from the arms), for cells not exposed to UV radiation (e.g., cells taken from the buttocks), or for both. That is, the condition genomics data 34 may be compared to the control genomics data 33 to determine the expression change for each of the genes in the target biological process. The expression changes between treated and untreated cells may also be calculated for each of the genes in the target biological process, which in some implementations may include comparing the control genomics data 33 to the treatment genomics data 32. Each set of expression changes (where each set comprises an expression change for each of the genes in the target biological process) forms a corresponding vector, and the vector for the treatment effect (also referred to hereafter as the “treatment vector”) is compared to the vector for the reference effect (e.g., the vector for old/young cells), which is also referred to herein as a “clinical vector,” by taking the distance (e.g., cosine distance) between the vectors.
Specific methods and calculations will now be described using the examples above in which the target treatment is Pal-KTTKS (and others) and the target condition is aging of skin cells. Throughout, UV-mediated aging may also be referred to as “photo-aging,” and cells subject to photo-aging may be referred to as “UV-exposed skin cells” or “skin cells exposed to UV radiation.” Similarly, non-UV-mediated aging may also be referred to as “intrinsic aging,” and cells subject to intrinsic aging may be referred to as “non-UV-exposed skin cells.” The treatment effect—in this case the anti-aging effect—of a specified ingredient (e.g., Pal-KTTKS) is measured by the vector distance (e.g., cosine distance) between two vectors of expression changes (e.g., log 2 fold expression changes) of genes in a target biological process. One of the vectors compares treatment genomics data for the genes with control genomics data for the genes to represent the treatment effects on the genes (i.e., a “treatment effect vector” or “treatment vector” of the ingredient). […]

[4] = tested on: innate and adaptive immunity processes/pathways; assay: Percentile of treatment anti-aging effect on Gene Ontology processes/pathways (FIG. 8)
From the text: as §1, with “The genes corresponding to each biological pathway/process and represented in each of the vectors are specified by Gene Ontology, KEGG pathway, WikiPathway, and/or any other known source.” left out
as §2

effect on the ATPase regulation processes/pathways overall [2]	Compound	percentile values for each of the biological processes/pathways 100a-h ([1]; cholesterol metabolism set, FIG. 6)	effect on the cholesterol metabolism processes/pathways ([1]; FIG. 6)	calculated percentile of vector distance in distribution from fibroblast reference genomics data, UV-mediated aging ([3]; 3 ppm on fibroblast cells, UV-exposed cells)	cosine distance with the photo aging vector ([3]; 3 ppm on fibroblast cells, UV-exposed cells clinical vector, cholesterol biosynthesis pathway)	calculated percentile of vector distance in distribution from fibroblast reference genomics data, intrinsic aging ([3]; 3 ppm on fibroblast cells, non-UV-exposed cells)	cosine distance with the intrinsic aging vector ([3]; 3 ppm on fibroblast cells, non-UV-exposed cells clinical vector, cholesterol biosynthesis pathway)	anti-aging benefit on the cholesterol synthesis pathway ([3]; both intrinsic and UV-mediated aging)	effect on the set 140 of innate and adaptive immunity pathways [4]	percentile values for innate and adaptive immunity processes/pathways ([4]; many of the percentile values, example threshold)	percentile for steroid metabolic process (100b) ([1]; columns D and E, only single process below exemplary threshold)
almost no effect	Pal-KTTKS	very low percentile values	very strong effect	0.36	−0.640	0.22	−0.720	strong anti-aging benefit	–	–	–
almost no effect	NC(=O)c1cccnc1 [Niacinamide]	–	likely does not strongly affect	–	–	–	–	–	strong effect	< 5%	< 5%
